These results are taken from US11208387B2, “Macrocyclic broad spectrum antibiotics” (Genentech, Inc., priority 2019, dated 2021).

Each structure is given as a SMILES string. In brackets after ≈: the same amount, converted by molar mass. Like-named read-outs stand apart in the source and are kept apart here.

What all share (assay): Serum MIC, broth micro-dilution
Common to all, as to type: cell-based
On the technique in general: Dilution methods test growth across graded concentrations, often in twofold steps.

Assay [1] relates to Pseudomonas aeruginosa PA01. The conditions noted are these: Pseudomonas aeruginosa, PA01, read-out: P. aeruginosa 01 Serum MIC. Put shortly:
(§1)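 Serum-shifted MIC: medium is a 1:1 v/v mix of cation-adjusted MH II broth and mouse serum. 10-point 2-fold dilution series, top 64, 4, 0.5 or 0.13 μg/mL depending on protocol. Inoculum OD600 0.0005 final; 35° C, 22 h.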

In assay [2] the test system is Klebsiella pneumoniae ATCC 700603. The conditions noted are these: Klebsiella pneumoniae, ATCC700603. Put shortly:
as §1

For assay [3], the system named is Escherichia coli strain ATCC 25922. The conditions noted are these: Escherichia coli, ATCC25922, read-out: E. coli 25922 Serum MIC. The procedure, abridged: as §1
For assay [4], the system named is Acinetobacter baumannii ATCC 17978. The conditions noted are these: Acinetobacter baumannii, ATCC17978. The procedure, abridged: as §1
Setting [5] is: 50% v/v mouse serum in Mueller Hinton II cation adjusted Broth, 35° C., 22 hours, Table 4.
Where [6] appears, read: 50% v/v mouse serum in Mueller Hinton II cation adjusted Broth, 35° C., 22 hours, Table 4, read-out: K pneumoniae 700603 Serum MIC.
[7] abbreviates: 50% v/v mouse serum in Mueller Hinton II cation adjusted Broth, 35° C., 22 hours, Table 4, read-out: A. baumanii 17978 Serum MIC.
Setting [8] is: 50% v/v mouse serum in Mueller Hinton II cation adjusted Broth, 35° C., 22 hours, Table 5, read-out: Acinetobacter baumanii 17978 Serum MIC.
The mark [9] stands for this setting: 50% v/v mouse serum, compounds of Table 1, Table 7.

For the molecule `Cc1nc(-c2ccc(C(C)(C)C)cc2O)cc(CN)c1C(=O)N[C@@H](CNS(N)(=O)=O)C(=O)N(C)[C@@H]1C(=O)N[C@@H](C)C(=O)N[C@H](C(=O)O)Cc2ccc(OC[C@H](O)CN)c(c2)-c2cc1cc(OC[C@H](O)CN)c2O` [Example 65, (8S,11S,14S)-3,17-bis[(2R)-3-amino-2-hydroxy-propoxy]-14-[[(2S)-2-[[4-(aminomethyl)-6-(4-tert-butyl-2-hydroxy-phenyl)-2-methyl-pyridine-3-carbonyl]-amino]-3-(sulfamoyl-amino)propanoyl]-methyl-amino]-18-hydroxy-11-methyl-10,13-dioxo-9,12-diazatricyclo-[13.3.1.12,6]icosa-1(19),2(20),3,5,15,17-hexaene-8-carboxylic acid], the MIC (commonly the lowest concentration that inhibits growth of the organism) in assay [1] (setting [5]) stood at 16 µM (≈ 16.6 µg/mL); in assay [2] (setting [6]), 1 µM (≈ 1.04 µg/mL); in assay [3] (setting [5]) it was 1 µM (≈ 1.04 µg/mL); in assay [4] (setting [7]) it was 32 µM (≈ 33.2 µg/mL); in assay [4] (setting [8]), 32 µM (≈ 33.2 µg/mL).

Turning to `CCC1(Oc2ccc(-c3nc(C)c(C(=O)N[C@@H](CCN)C(=O)N(C)[C@@H]4C(=O)N[C@@H](C)C(=O)N[C@H](C(=O)O)Cc5ccc(OCCN)c(c5)-c5cc4ccc5OCCN)c(C)n3)cc2)CC1` (racemic) [Example 639], the MIC in assay [1] (setting [9]) was 64 µM (≈ 57.2 µg/mL); in assay [2] (50% v/v mouse serum, compounds of Table 1, Table 7, read-out: K. pneumoniae 700603 Serum MIC), 1 µM (≈ 0.894 µg/mL); in assay [3] (setting [9]) it was 0.5 µM (≈ 0.447 µg/mL); in assay [4] (50% v/v mouse serum, compounds of Table 1, Table 7, read-out: A. baumanii 17978 Serum MIC), 64 µM (≈ 57.2 µg/mL).

As to `Cc1cc(-c2ccc(C(C)(C)C)cc2)nc(N)c1C(=O)N[C@@H](CNS(N)(=O)=O)C(=O)N(C)[C@@H]1C(=O)N[C@@H](C)C(=O)N[C@H](C(=O)O)Cc2ccc(OC[C@H](O)CN)c(c2)-c2cc1cc(OC[C@H](O)CN)c2O` [Example 49, (8S,11S,14S)-14-[[(2S)-2-[[2-amino-6-(4-tert-butylphenyl)-4-methyl-pyridine-3-carbonyl]amino]-3-(sulfamoylamino)-propanoyl]-methyl-amino]-3,17-bis[(2R)-3-amino-2-hydroxy-propoxy]-18-hydroxy-11-methyl-10,13-dioxo-9,12-diazatri-cyclo[13.3.1.12,6]icosa-1(18),2(20),3,5,15(19), 16-hexaene-8-carboxylic acid], the MIC in assay [1] (setting [5]) worked out at 8 µM (≈ 8.06 µg/mL); in assay [2] (setting [6]), 1 µM (≈ 1.01 µg/mL); in assay [3] (setting [5]) it was 0.5 µM (≈ 0.504 µg/mL); in assay [4] (setting [7]), 16 µM (≈ 16.1 µg/mL); in assay [4] (setting [8]) it was 16 µM (≈ 16.1 µg/mL).

As to `C[C@@H]1NC(=O)[C@@H](N(C)C(=O)[C@H](CNS(N)(=O)=O)NC(=O)c2c(N)nc(-c3ccc(C(C)(C)C)cc3)nc2Cl)c2cc(OC[C@H](O)CN)c(O)c(c2)-c2cc(ccc2OC[C@H](O)CN)C[C@@H](C(=O)O)NC1=O` [Example 53, (8S,11S,14S)-14-[[(2S)-2-[[4-amino-2-(4-tert-butylphenyl)-6-chloro-pyrimidine-5-carbonyl]amino]-3-(sulfamoylamino)-propanoyl]-methyl-amino]-3,17-bis[(2R)-3-amino-2-hydroxy-propoxy]-18-hydroxy-11-methyl-10,13-dioxo-9,12-diazatri-cyclo[13.3.1.12,6]icosa-1(18),2(20),3,5,15(19), 16-hexaene-8-carboxylic acid], the MIC is 3 µM (≈ 3.09 µg/mL) in assay [1] (setting [5]); 0.5 µM (≈ 0.514 µg/mL) in assay [2] (setting [6]); 0.38 µM (≈ 0.391 µg/mL) in assay [3] (setting [5]); 6 µM (≈ 6.17 µg/mL) in assay [4] (setting [7]); 6 µM (≈ 6.17 µg/mL) in assay [4] (setting [8]).

Consider `C[C@@H]1NC(=O)[C@@H](N(C)C(=O)[C@H](CCN)NC(=O)c2c(N)nc(-c3ccc(C(C)(C)C)cc3)nc2Cl)c2cc(OC[C@H](O)CN)c(O)c(c2)-c2cc(ccc2OC[C@H](O)CN)C[C@@H](C(=O)O)NC1=O` [Example 55, (8S,11S,14S)-18-hydroxy-11-methyl-14-[methyl-[(2S)-4-amino-2-[[4-amino-2-(4-tert-butylphenyl)-6-chloro-pyrimidine-5-carbonyl]amino]-butanoyl]amino]-10,13-dioxo-3,17-bis[(2R)-3-amino-2-hydroxy-propoxy]-9,12-diazatricyclo-[13.3.1.12,6]icosa-1(18),2(20),3,5,15(19), 16-hexaene-8-carboxylic acid], for which the MIC in assay [1] (setting [5]) amounted to 6 µM (≈ 5.78 µg/mL); in assay [2] (setting [6]) it was 0.19 µM (≈ 0.183 µg/mL); in assay [3] (setting [5]) it was 0.19 µM (≈ 0.183 µg/mL); in assay [4] (setting [7]) it was 6 µM (≈ 5.78 µg/mL); in assay [4] (setting [8]), 6 µM (≈ 5.78 µg/mL).
